Measured values: patent US9232796B2, “Herbicidal compositions comprising 4-amino-3-chloro-5-fluoro-6-(4-chloro-2-fluoro-3-methoxyphenyl) pyridine-2-carboxylic acid or a derivative thereof and acetyl-CoA carboxylase (ACCase) inhibitors” (DOW AGROSCIENCES LLC, priority 2012, dated 2016)

Assays:
[1] = test system: FIMMI; test: Example II in-water applied, greenhouse, transplanted paddy rice weeds; type: in vivo, Fimbristylis miliacea (L.) Vahl
Description: Weed seeds or nutlets of the desired test plant species were planted in puddled soil (mud) prepared by mixing a shredded, non-sterilized mineral soil (50.5 percent silt, 25.5 percent clay, and 24 percent sand, with a pH of about 7.6 and an organic matter content of about 2.9 percent) and water at a 1:1 volumetric ratio. The prepared mud was dispensed in 365 mL aliquots into 16-ounce (oz.) non-perforated plastic pots with a surface area of 86.59 square centimeters (cm^2) leaving a headspace of 3 centimeters (cm) in each pot. Mud was allowed to dry overnight prior to planting or transplanting. Rice seeds were planted in Sun Gro MetroMix® 306 planting mixture, which typically has a pH of 6.0 to 6.8 and an organic matter content of about 30 percent, in plastic plug trays. Seedlings at the second or third leaf stage of growth were transplanted into 860 mL of mud contained in 32-oz. non-perforated plastic pots with a surface area of 86.59 cm^2 4 days prior to herbicide application. The paddy was created by filling the headspace of the pots with 2.5 to 3 cm of water. […] The plants were grown for 4-22 days in a greenhouse with an approximate 14 hr. photoperiod which was maintained at about 29° C. during the day and 26° C. during the night. Nutrients were added as Osmocote® (19:6:12, N:P:K+minor nutrients) at 2 g per 16-oz. pot and 4 g per 32-oz. pot. Water was added on a regular basis to maintain the paddy flood, and supplemental lighting was provided with overhead metal halide 1000-Watt lamps as necessary. The plants were employed for testing when they reached the first through fourth true leaf stage.
Treatments consisted of the acid or esters of 4-amino-3-chloro-5-fluoro-6-(4-chloro-2-fluoro-3-methoxy-phenyl)pyridine-2-carboxylic acid (compound A) each formulated as an SC (suspension concentrate) and various herbicidal components alone and in combination.
For formulated compounds, a measured amount was placed in an individual 100 or 200 mL glass vial and was dissolved in a volume of 1.25% (v/v) Agri-Dex® crop oil concentrate to obtain application solutions.
Applications were made by injecting with a pipetter appropriate amounts of the application solutions, individually and sequentially, into the aqueous layer of the paddy. Control plants were treated in the same manner with the solvent blank. Applications were made so that all treated plant material received the same concentrations of acetone and crop oil concentrate.
(§1) The treated plants and control plants were placed in a greenhouse as described above and water was added as needed to maintain a paddy flood. After approximately 3 weeks the condition of the test plants as compared with that of the untreated plants was determined visually and scored on a scale of 0 to 100 percent where 0 corresponds to no injury or growth inhibition and 100 corresponds to complete kill.
(§2) Colby's equation was used to determine the herbicidal effects expected from the mixtures (Colby, S. R. 1967. Calculation of the synergistic and antagonistic response of herbicide combinations. Weeds 15:20-22.).
The following equation was used to calculate the expected activity of mixtures containing two active ingredients, A and B: Expected=A+B−(A×B/100)

[2] = test system: SCPJU; test: Example VI in-water applied ternary mixtures, greenhouse, transplanted paddy rice weeds; type: in vivo, Schoenoplectus juncoides (Roxb.) Palla
Description: Weed seeds or nutlets of the desired test plant species were planted in puddled soil (mud) prepared by mixing a shredded, non-sterilized mineral soil (50.5 percent silt, 25.5 percent clay, and 24 percent sand, with a pH of about 7.6 and an organic matter content of about 2.9 percent) and water at a 1:1 volumetric ratio. The prepared mud was dispensed in 365 mL aliquots into 16-ounce (oz.) non-perforated plastic pots with a surface area of 86.59 square centimeters (cm^2) leaving a headspace of 3 centimeters (cm) in each pot. Mud was allowed to dry overnight prior to planting or transplanting. Rice seeds were planted in Sun Gro MetroMix® 306 planting mixture, which typically has a pH of 6.0 to 6.8 and an organic matter content of about 30 percent, in plastic plug trays. Seedlings at the second or third leaf stage of growth were transplanted into 860 mL of mud contained in 32-oz. non-perforated plastic pots with a surface area of 86.59 cm^2 4 days prior to herbicide application. The paddy was created by filling the headspace of the pots with 2.5 to 3 cm of water. When required to ensure good germination and healthy plants, a fungicide treatment and/or other chemical or physical treatment was applied. The plants were grown for 4-22 days in a greenhouse with an approximate 14 hr. photoperiod which was maintained at about 29° C. during the day and 26° C. during the night. Nutrients were added as Osmocote® (19:6:12, N:P:K+minor nutrients) at 2 g per 16-oz. pot and 4 g per 32-oz. pot. Water was added on a regular basis to maintain the paddy flood, and supplemental lighting was provided with overhead metal halide 1000-Watt lamps as necessary. The plants were employed for testing when they reached the first through fourth true leaf stage.
Treatments consisted of the benzyl ester of 4-amino-3-chloro-5-fluoro-6-(4-chloro-2-fluoro-3-methoxy-phenyl)pyridine-2-carboxylic acid (Compound A), formulated as an SC (suspension concentrate), an ACCase inhibitor herbicide, and a third herbicidal component, each applied alone and in ternary combination. Forms of compound A were applied on an acid equivalent basis.
The ACCase inhibitor component was applied on an active ingredient basis and included cyhalofop-R-butyl formulated as Clincher® G and metamifop formulated as Metamifop EC. […]
Treatment requirements for each compound or herbicidal component were calculated based upon the rates being tested, the concentration of active ingredient or acid equivalent in the formulation, an application volume of 1 mL per component per pot, and an application area of 86.59 cm^2 per pot.
For formulated compounds, a measured amount was placed in an individual 100 or 200 mL glass vial and was dissolved in a volume of 1.25% (v/v) Agri-Dex® crop oil concentrate to obtain application solutions. […]

[3] = test system: LEFCH; test: Example V (second) postemergence foliar-applied ternary mixtures, greenhouse, direct seeded rice weeds; type: in vivo, Leptochloa chinensis (L.) Nees
Description: as §1, with “watered by sub-irrigation” for “water was added as needed”, “prevent wash-off of the test compounds.” for “maintain a paddy flood.”, “weeks,” for “weeks”
as §2
The following equation was used to calculate the expected activity of mixtures containing three active ingredients, A, B, and C: Expected=A+B+C−((A×B+A×C+B×C)/100)+(A×B×C/10000)

For `COc1c(Cl)ccc(-c2nc(C(=O)O)c(Cl)c(N)c2F)c1F` [Compound A Acid, 4-amino-3-chloro-6-(4-chloro-2-fluoro-3-methoxyphenyl)-5-fluoropyridine-2-carboxylic acid], the “Visual Weed Control (%) - 21 DAA FIMMI Obs” value ([1]; 8.75 gae/ha) was 20% and the “Visual Weed Control (%) - 21 DAA FIMMI Obs” value ([1]; 35 gae/ha) was 85%.
In the case of `COc1c(Cl)ccc(-c2nc(C(=O)OCc3ccccc3)c(Cl)c(N)c2F)c1F` [Compound A Benzyl Ester, benzyl ester of 4-amino-3-chloro-5-fluoro-6-(4-chloro-2-fluoro-3-methoxy-phenyl)pyridine-2-carboxylic acid], the “Visual Weed Control (%) - 21 DAA SCPJU Obs” value ([2]; 2.19 gae/ha) is reported as 77%, the “Visual Weed Control (%) - 22 DAA LEFCH Obs” value ([3]; 8 gae/ha) is reported as 28% and the “Visual Weed Control (%) - 21 DAA LEFCH Obs” value ([3]; 16 gae/ha) is reported as 25%.
In the case of `CCCCOC(=O)[C@@H](C)Oc1ccc(Oc2ccc(C#N)cc2F)cc1` [Cyhalofop-butyl, butyl(2R)-2-[4-(4-cyano-2-fluorophenoxy)phenoxy]propanoate, reference compound], the “Visual Weed Control (%) - 21 DAA SCPJU Obs” value ([2]; 22.5 gai/ha) is reported as 0%, the “Visual Weed Control (%) - 21 DAA SCPJU Obs” value ([2]; 45 gai/ha) is reported as 0% and the “Visual Weed Control (%) - 21 DAA LEFCH Obs” value ([3]; 35 gai/ha) is reported as 68%. For the same compound, the “Visual Weed Control (%) - 22 DAA LEFCH Obs” value ([3]; 35 gai/ha) was 70%.
With `C[C@@H](Oc1ccc(Oc2nc3ccc(Cl)cc3o2)cc1)C(=O)N(C)c1ccccc1F` [Metamifop, (2R)-2-[4-[(6-chloro-2-benzoxazolyl)oxy]phenoxy]-N-(2-fluorophenyl)-N-methylpropanamide] the “Visual Weed Control (%) - 21 DAA FIMMI Obs” value ([1]; 75 gai/ha) was 0% and the “Visual Weed Control (%) - 21 DAA FIMMI Obs” value ([1]; 150 gai/ha) was 0%.
